Test results from ChEMBL document CHEMBL1955859, “Molecular modeling study of cyclic pentapeptide CXCR4 antagonists: new insight into CXCR4-FC131 interactions” (Bioorg Med Chem Lett, 2012).
pIC50: −log10 of the molar value.

Target: C-X-C chemokine receptor type 4 (Homo sapiens, UniProt P61073)
Experiment: Antagonist activity at CXCR4
Type: functional

Sequence of C-X-C chemokine receptor type 4 (P61073 whole entry): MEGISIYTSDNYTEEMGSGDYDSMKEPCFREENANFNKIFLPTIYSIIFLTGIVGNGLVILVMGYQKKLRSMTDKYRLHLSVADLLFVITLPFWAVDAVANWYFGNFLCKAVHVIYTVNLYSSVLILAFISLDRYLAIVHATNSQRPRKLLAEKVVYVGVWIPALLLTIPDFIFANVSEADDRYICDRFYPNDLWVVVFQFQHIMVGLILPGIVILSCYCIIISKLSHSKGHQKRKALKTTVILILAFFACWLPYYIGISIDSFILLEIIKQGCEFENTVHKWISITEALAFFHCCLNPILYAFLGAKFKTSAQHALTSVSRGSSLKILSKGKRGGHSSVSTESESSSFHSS

- pIC50: 7.29
SMILES: NC(N)=NCCC[C@@H]1NC(=O)[C@H](CCCN=C(N)N)NC(=O)[C@@H](Cc2ccccc2)NC(=O)CNC(=O)[C@H](Cc2ccc3ccccc3c2)NC1=O
